This assay has as its system PI3-K in BT20 cells (phosphorylation of AKT at serine 473). Kind of assay: PI3-Kα Cellular Assay (AKT Ser473 phosphorylation ELISA in BT20 cells). The assay is classed as cell-based, human. Particulars: Homo sapiens, BT-20, pAKT Ser473 ELISA, 1 hour incubation. As to the method: Compounds of the present invention were evaluated for potency against PI3-K using a cellular assay as follows.
Healthy growing human breast cancer cells BT20 (PI3K mutated) are used for the assay. BT20 cells are grown in 10% FBS+GLN (1:100)+PS (1:100)+1 mM Sodium Pyruvate+0.1 mM Sodium Bicarbonate+Non-Essential Amino Acids Solution (1:100) MEM medium (MEM+all). […] The cells are re-suspended in 10% FBS MEM all and are centrifuged down at 1400 rpm for 5 minutes. The cells are re-suspended in 0.5% FBS MEM all and are counted on a cell counter. The cells are seeded at 25,000 cells/well in volume of 100 μL/well in 0.5% FBS MEM all in a 96 well flat-bottom plate. The negative control wells receive only 100 μL of 0.5% FBS MEM all medium without cells. The plate is incubated overnight in a cell culture incubator with 5% CO2 at 37° C.
On day 2, testing compounds are prepared in 0.5% FBS MEM all medium and serially diluted at 1:3 for 11 test concentrations. Each concentration of the compounds is tested in duplicate. The compound solutions are added at 25 μL/well to the corresponded wells in cell plate, and 25 μL/well of the vehicle (0.5% DMSO in 0.5% FBS MEM all) is added to the negative control wells (no cells) and the positive control wells (cells without compounds). The plate is incubated for 1 hour in a cell culture incubator with 5% CO2 at 37° C. After 1 hour of incubation, the medium is removed, 100 μL/well of cell lysis buffer is added into the cell plate, and shake for 15 minutes at room temperature. […] After 1 hour, empty the contents of the wells, wash the plate 4 times with the wash buffer, and add 100 μL of TMB substrate solution (catalog #T0440, Sigma) into each well, and incubate with gentle shaking at room temperature for […]. After 15 minutes of color development, add 100 μL of stop solution (1N hydrochloric acid) to each well, and read the plate at 450 nm on ELISA plate reader.

`Cc1nc(N)nc2c1cc(-c1cn[nH]c1)c(=O)n2C1CCCC1` [Compound 101, 2-amino-8-cyclopentyl-6-(1H-pyrazol-4-yl)-4-methylpyrido[2,3-d]pyrimidin-7(8H)-one] showed a half-inhibitory concentration (IC50) of 3.49 nM.

Turning to `CCNc1nc(C)c2cc(CCC(N)=O)c(=O)n(C3CCCC3)c2n1` [Compound 118, 3-[8-cyclopentyl-2-(ethylamino)-4-methyl-7-oxo-7,8-dihydropyrido[2,3-d]pyrimidin-6-yl]propanamide], the IC50 is 8370 nM.

For `CCNc1nc(C)c2cc(CCC(=O)Nc3ccccn3)c(=O)n(C3CCCC3)c2n1` [Compound 122, 3-[8-cyclopenlyl-2-(ethylamino)-4-methyl-7-oxo-7,8-dihydropyrido[2,3-d]pyrimidin-6-yl]-N-pyridin-2-ylpropanamide], half-maximal inhibition (IC50) required 10000 nM.

As to `Cc1nc(N)nc2c1cc(-c1cccnc1N)c(=O)n2C1CCCC1` [Compound 125, 2-amino-6-(2-aminopyridin-3-yl)-8-cyclopentyl-4-methylpyrido[2,3-d]pyrimidin-7(8H)-one], the midpoint of inhibition, the IC50, lay at 9010 nM.

For `CCNc1nc(C)c2cc(-c3ccc(O)c(OC)c3)c(=O)n(C3CCCC3)c2n1` [Compound 136, 8-cyclopentyl-2-(ethylamino)-6-(4-hydroxy-3-methoxyphenyl)-4-methylpyrido[2,3-d]pyrimidin-7(8H)-one], inhibition was half-maximal at 26.3 nM (IC50).

In turn, `CCNc1nc(C)c2cc(-c3ccc(OC)nc3)c(=O)n(C3CCCC3)c2n1` [Compound 139, 8-cyclopentyl-2-(ethylamino)-6-(6-methoxypyridin-3-yl)-4-methylpyrido[2,3-d]pyrimidin-7(8H)-one] displayed a 50% inhibitory concentration (IC50) of 17 nM.

In the case of `CNc1nc(C)c2cc(-c3ccc(OC)nc3)c(=O)n(C3CCCC3)c2n1` [Compound 140], the midpoint of inhibition, the IC50, lay at 0.793 nM.

Turning to `CCOC(=O)c1cccc(-c2cc3c(C)nc(NC)nc3n(C3CCCC3)c2=O)c1` [Compound 141, ethyl 3-[8-cyclopentyl-4-methyl-2-(methylamino)-7-oxo-7,8-dihydropyrido[2,3-d]pyrimidin-6-yl]benzoate], the IC50 was 10000 nM.

As to `CCNc1nc(C)c2cc(-c3cccc(O)c3)c(=O)n(C3CCCC3)c2n1` [Compound 144, 8-cyclopentyl-2-(ethylamino)-6-(3-hydroxyphenyl)-4-methylpyrido[2,3-d]pyrimidin-7(8H)-one], 3.05 nM corresponded to half-maximal inhibition (IC50).

As for `Cc1nc(N)nc2c1cc(Br)c(=O)n2[C@H]1CC[C@H](O)CC1` [Compound 157, 2-amino-6-bromo-8-(trans-4-hydroxycyclohexyl)-4-methylpyrido[2,3-d]pyrimidin-7(8H)-one], the concentration for half-maximal inhibition (IC50) was 305 nM.

In turn, `Cc1nc(N)nc2c1cc(Br)c(=O)n2[C@@H]1CC[C@H](O)C1` [Compound 160, 2-amino-6-bromo-8-[(1R,3S)-3-hydroxycyclopentyl]-4-methylpyrido[2,3-d]pyrimidin-7(8H)-one] gave an IC50 of 1040 nM.

As to `Cc1nc(N)nc2c1cc(-c1cnn(C)c1)c(=O)n2[C@@H]1CC[C@H](O)C1` [Compound 161, 2-amino-8-[(1R,3S)-3-hydroxycyclopentyl]-4-methyl-6-(1-methyl-1H-pyrazol-4-yl)pyrido[2,3-d]pyrimidin-7(8H)-one], the IC50 came to 934 nM.

`Cc1nc(N)nc2c1cc(-c1cn[nH]c1)c(=O)n2[C@@H]1CC[C@H](O)C1` [Compound 162, 2-amino-8-[(1R,3S)-3-hydroxycyclopentyl]-4-methyl-6-(1H-pyrazol-4-yl)pyrido[2,3-d]pyrimidin-7(8H)-one] displayed a 50% inhibitory concentration (IC50) of 47.2 nM.

Regarding `Cc1nc(N)nc2c1cc(-c1cnn(C)c1)c(=O)n2[C@@H]1CC[C@@H](O)C1` [Compound 164, 2-amino-8-[(1R,3R)-3-hydroxycyclopentyl]-4-methyl-6-(1-methyl-1H-pyrazol-4-yl)pyrido[2,3-d]pyrimidin-7(8H)-one], the IC50 is 1300 nM.

In turn, `Cc1nc(N)nc2c1cc(-c1cn[nH]c1)c(=O)n2[C@@H]1CC[C@@H](O)C1` [Compound 166, 2-amino-8-[(1R,3R)-3-hydroxycyclopentyl]-4-methyl-6-(1H-pyrazol-4-yl)pyrido[2,3-d]pyrimidin-7(8H)-one] showed an IC50 of 262 nM.

Take `Cc1nc(N)nc2c1cc(Br)c(=O)n2CC(C)(C)O` [Compound 167, 2-amino-6-bromo-8-(2-hydroxy-2-methylpropyl)-4-methylpyrido[2,3-d]pyrimidin-7(8H)-one]: 2360 nM corresponded to half-maximal inhibition (IC50).

Take `COc1ccc(-c2cc3c(C)nc(N)nc3n(CC(C)(C)O)c2=O)cn1` [Compound 169, 2-amino-8-(2-hydroxy-2-methylpropyl)-6-(6-methoxypyridin-3-yl)-4-methylpyrido[2,3-d]pyrimidin-7(8H)-one]: half-maximal inhibition (IC50) was put at 340 nM.

The compound `Cc1nc(N)nc2c1cc(-c1cnc3[nH]ccc3c1)c(=O)n2CC(C)(C)O` [Compound 172, 2-amino-8-(2-hydroxy-2-methylpropyl)-4-methyl-6-(1H-pyrrolo[2,3-b]pyridin-5-yl)pyrido[2,3-d]pyrimidin-7(8H)-one] came in with an IC50 of 116 nM.

As to `COc1ccc(-c2cc3c(C)nc(N)nc3n([C@H]3CC[C@@H](O)CC3)c2=O)cn1` [Compound 174, 2-amino-8-(cis-4-hydroxycyclohexyl)-6-(6-methoxypyridin-3-yl)-4-methylpyrido[2,3-d]pyrimidin-7(8H)-one], inhibition was half-maximal at 19 nM (IC50).

For the compound `Cc1nc(N)nc2c1cc(-c1cn[nH]c1)c(=O)n2C1CCC(=O)CC1` [Compound 176, 2-amino-4-methyl-8-(4-oxocyclohexyl)-6-(1H-pyrazol-4-yl)pyrido[2,3-d]pyrimidin-7(8H)-one], the IC50 was determined as 4.66 nM.

For the compound `COc1ncc(-c2cc3c(C)nc(N)nc3n([C@H]3CC[C@@H](O)CC3)c2=O)cc1F` [Compound 177], inhibition was half-maximal at 8.02 nM (IC50).

Consider `COc1ncc(-c2cc3c(C)nc(N)nc3n([C@H]3CC[C@H](OC)CC3)c2=O)cc1F` [Compound 180, 2-amino-6-(5-fluoro-6-methoxypyridin-3-yl)-8-(trans-4-methoxycyclohexyl)-4-methylpyrido[2,3-d]pyrimidin-7(8H)-one], for which the IC50 came to 3.39 nM.

Take `Cc1nc(N)nc2c1cc(-c1ccc(N(C)C)nc1)c(=O)n2[C@H]1CC[C@@H](O)CC1` [Compound 181, 2-amino-6-[6-(dimethylamino)pyridin-3-yl]-8-(cis-4-hydroxycyclohexyl)-4-methylpyrido[2,3-d]pyrimidin-7(8H)-one]: the IC50 was 17.6 nM.

Take `CO[C@H]1CC[C@H](n2c(=O)c(-c3cn[nH]c3)cc3c(C)nc(N)nc32)CC1` [Compound 183, 2-amino-8-(trans-4-methoxycyclohexyl)-4-methyl-6-(1H-pyrazol-4-yl)pyrido[2,3-d]pyrimidin-7(8H)-one]: inhibition was half-maximal at 4.69 nM (IC50).

With `COc1ncc(-c2cc3c(C)nc(N)nc3n([C@H]3CC[C@H](O)CC3)c2=O)cc1F` [Compound 191, 2-amino-6-[5-fluoro-6-methoxypyridin-3-yl)-8-(trans-4-hydroxycyclohexyl)-4-methylpyrido[2,3-d]pyrimidin-7(8H)-one], the half-maximal inhibitory concentration (IC50) stood at 3.1 nM.

With `COc1ccc(-c2cc3c(C)nc(N)nc3n(C3CCOCC3)c2=O)cn1` [Compound 200, 2-amino-6-(6-methoxypyridin-3-yl)-4-methyl-8-(tetrahydro-2H-pyran-4-yl)pyrido[2,3-d]pyrimidin-7(8H)-one], inhibition was half-maximal at 71.4 nM (IC50).

Compound `Cc1nc(N)nc2c1cc(-c1cn[nH]c1)c(=O)n2CC1CCOC1` (centres unmarked) [Compound 219, 2-amino-4-methyl-6-(1H-pyrazol-4-yl)-8-((tetrahydrofuran-3-yl)methyl)pyrido[2,3-d]pyrimidin-7(8H)-one] showed a half-inhibitory concentration (IC50) of 94.9 nM.

`COc1ccc(-c2cc3c(C)nc(N)nc3n(CC3CCOC3)c2=O)cn1` (centres unmarked) [Compound 220, 2-amino-6-(6-methoxypyridin-3-yl)-4-methyl-8-((tetrahydrofuran-3-yl)methyl)pyrido[2,3-d]pyrimidin-7(8H)-one] gave a concentration for half-maximal inhibition (IC50) of 145 nM.

`Cc1nc(N)nc2c1cc(-c1cn[nH]c1)c(=O)n2CC1CCCO1` (centres unmarked) [Compound 223, 2-amino-4-methyl-6-(1H-pyrazol-4-yl)-8-((tetrahydrofuran-2-yl)methyl)pyrido[2,3-d]pyrimidin-7(8H)-one]: it took 249 nM to reach half-maximal inhibition (IC50).

In turn, `Cc1nc(N)nc2c1cc(-c1cnn(C)c1)c(=O)n2C1CCCC1` [Compound 235, 2-Amino-8-cyclopentyl-4-methyl-6-(1-methyl-1H-pyrazol-yl)-8H-pyrido[2,3-d]pyrimidin-7-one] displayed a half-maximal inhibitory concentration (IC50) of 623 nM.

For `CNc1nc(C)c2cc(-c3ccc(OC)nc3)c(=O)n(CCN)c2n1` [Compound 239, 8-(2-Amino-ethyl)-6-(6-methoxy-pyridin-3-yl)-4-methyl-2-methylamino-8H-pyrido[2,3-d]pyrimidin-7-one], the midpoint of inhibition, the IC50, lay at 1270 nM.

For the compound `COc1ccc(-c2cc3c(C)nc(N)nc3n(CC(C)C)c2=O)cn1` [Compound 241, 2-Amino-8-isobutyl-6-(6-methoxy-pyridin-3-yl)-4-methyl-8H-pyrido[2,3-d]pyrimidin-7-one], the 50% inhibitory concentration (IC50) was 79.3 nM.

(Values after patent US8633204B2 (Pfizer Inc., priority 2006, dated 2014).)
